Results: patent US6410790B1, “3-amin3-arylpropan-1-ol compounds, their preparation and use” (priority 1999, dated 2002)

Tests used:
[1] = system: phenylalkylamine binding site of the L-type calcium channel; test: Verapamil binding, L calcium channel; conditions: 10 μM, percentage inhibition, N-methyl-[3H]-verapamil 2 nM
Method: Binding Investigations in the L Calcium Channel
Phenylalkylamine Binding Site (Verapamil Binding)
The biological material (ion channel particles) was prepared on the basis of the publication of Reynolds, Gould and Snyder (I. J. Reynolds, R. J. Gould and S. H. Snyder (1983) […]. 95, 319-321).
N-methyl-[^3H]-verapamil (2 nM in the assay) was used as radioligand. The radioactivity that is measured in the presence of non-radioactive verapamil (10^−4 M in the assay) is defined as non-specific binding. The material was incubated at 25° C. for 45 minutes. The material was then filtered using a Whatman GF/B filter, followed by washing. The radioactivity remaining on the filter (ion channel binding) was measured using a β-counter.
For this purpose IC50 values are obtained, which can be converted to inhibitor constants (Ki) according to the “Cheng-Prusoff equation” (Y. C. Clieng and W. H. Prusoff (1973) Biochem. Pharmacol. 22, 3099-3108). The IC50 values were obtained by means of the computer program “Figure P” (version 6.0, Biosoft, Cambridge, England). Km values were calculated according to Lineweaver and Burk (H. Lineweaver and D. Burk (1934) J. Am. Chem. Soc. 56, 658-666). The “Ligand” computer program (version 4, Biosoft, England) was used to obtain Ken values.

[2] = system: benzothiazepine binding site of the L-type calcium channel; test: Diltiazem binding, L calcium channel; parameters: species or system rat; conditions: 10 μM, percentage inhibition, [3H]-cis-(+)-diltiazem 5 nM, rat cerebral cortex membranes
Outline: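 Rat cerebral cortex membranes incubated with [^3H]-cis-(+)-diltiazem (5 nM) for 20 min at 25° C; nonspecific binding defined with (±)-diltiazem (10^−6 M). Bound ligand collected by GF/B filtration and counted; IC50 values converted to Ki by Cheng-Prusoff.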

[3] = system: binding site 2 of the sodium channel; test: BTX binding, sodium channel; conditions: 10 μM, percentage inhibition, [3H]-batrachotoxin A20 α-benzoate 10 nM, rat cerebral cortex synaptosomes
Outline: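 Rat cerebral cortex synaptosomes incubated with 10 nM [^3H]-batrachotoxin A20 α-benzoate at 37° C for 120 min; non-specific binding defined with 0.3 mM veratridine. IC50 values converted to Ki via Cheng-Prusoff; means±SEM of 3 independent series run in triplicate.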

[4] = system: phenylquinone-induced writhing reaction; test: phenylquinone-induced writhing test in mice; assay type: in vivo; conditions: Mus musculus, iv, 10 min, male NMRI mice, 10 mg/kg intravenously, phenylquinone i.p. 10 minutes later
Outline: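 Male NMRI mice (25–30 g, n=10/group) received test substance i.v. at 10 mg/kg, then 0.02% phenylquinone i.p. 10 min later. Writhing reactions were counted 5–20 min after phenylquinone; % inhibition is relative to saline-treated controls.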

NA transporter = molecular target: T1, NA transporter (Rattus norvegicus, UniProt Q63380); test: synaptosomal noradrenaline uptake inhibition (NA uptake inhibition); assay type: biochemical; conditions: read-out: NA Uptake Inhibition at 1 μM, 1 μM in the assay, synaptosomes from rat hypothalamus
T1 construct: synaptosomes are isolated fresh from rat brains; from tissue; host or cells: rat hypothalamus synaptosomes (P2 fraction)
Outline: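 IC50 values converted to Ki via Cheng-Prusoff; Km by Lineweaver-Burk. N=4 independent series, each in triplicate, mean ± SEM.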

T1 sequence (Q63380 1-617): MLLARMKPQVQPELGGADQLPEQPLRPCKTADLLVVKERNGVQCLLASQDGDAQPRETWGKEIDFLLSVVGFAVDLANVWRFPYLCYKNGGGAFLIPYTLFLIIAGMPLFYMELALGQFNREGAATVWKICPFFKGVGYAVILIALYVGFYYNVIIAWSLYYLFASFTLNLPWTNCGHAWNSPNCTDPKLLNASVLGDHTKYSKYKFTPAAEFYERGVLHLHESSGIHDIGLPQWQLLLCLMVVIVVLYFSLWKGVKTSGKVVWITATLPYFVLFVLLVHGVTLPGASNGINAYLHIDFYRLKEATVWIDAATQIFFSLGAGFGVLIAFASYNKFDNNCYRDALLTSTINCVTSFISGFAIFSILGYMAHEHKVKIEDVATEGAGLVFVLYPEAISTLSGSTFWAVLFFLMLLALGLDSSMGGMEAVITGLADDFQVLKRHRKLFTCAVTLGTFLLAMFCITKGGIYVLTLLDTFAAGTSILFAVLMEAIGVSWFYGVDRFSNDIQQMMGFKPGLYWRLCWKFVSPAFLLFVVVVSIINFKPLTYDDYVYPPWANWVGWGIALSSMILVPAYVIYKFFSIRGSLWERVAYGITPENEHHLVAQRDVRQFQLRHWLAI

Row | Compound | Verapamil Binding at 10 μM [1] | Diltiazem Binding at 10 μM [2] | BTX Binding at 10 μM [3] | inhibition in vivo at 10 mg/kg [4] | inhibition at 1 µM (NA transporter) | melting point
1 | Cc1ccc(C2(O)CCCCC2C(c2ccccc2)N(C)C)cc1.Cl (stereo not shown) [Example 8, 2-(dimethylaminophenylmethyl)-1-p-tolylcyclohexanol, hydrochloride] | 56% | 68% | 88% | 81% | 50% | 168 to 169 °C
2 | CN(C)C(c1ccccc1)C1CCCCC1(O)c1ccc(F)c(C(F)(F)F)c1.Cl (stereo not shown) [Example 15, 2-(dimethylaminophenylmethyl)-1-(4-fluoro-3-trifluoromethylphenyl)cyclohexanol, hydrochloride] | 87% | 97% | 94% | 73% | 44% | 234 to 237 °C
3 | CN(C)C(c1ccccc1)C1CCCCC1(O)Cc1ccc(C(C)(C)C)cc1.Cl (stereo not shown) [Example 28, 1-(4-tert.-butylbenzyl)-2-(dimethylaminophenylmethyl)cyclohexanol, hydrochloride] |  | 89% | 100% | 100% | 63% | 227 to 229 °C
4 | CN(C)C(c1ccccc1)C1CCCCC1(O)Cc1cccc(F)c1.Cl (stereo not shown) [Example 29, 2-(dimethylaminophenylmethyl)-1-(3-fluorobenzyl)cyclohexanol, hydrochloride] |  | 72% | 88% | 96% | 96% | 146 to 147 °C
